From US20030083484A1, “Antisense modulation of short heterodimer partner-1 expression” (priority 2001, published 2003)
Strand notation (5' to 3'): a small letter for the sugar, then the base; units joined by * are phosphorothioate-linked, units joined directly phosphodiester-linked; [ ] holds rarer units or linkages, { } end groups; capitals alone tell only the bases. e = 2'-O-(2-methoxyethyl) (MOE); [5mC] = 5-methylcytosine; d = 2'-deoxy (DNA)

Tested on: mouse short heterodimer partner-1 mRNA
Test: Inhibition of mouse short heterodimer partner-1 mRNA levels in primary hepatocytes, quantitative real-time PCR
Format: cell-based
Set-up: concentration or dose not given beside the values
Conditions: averages from two experiments
Method: Primary mouse hepatocytes were prepared from CD-1 mice purchased from Charles River Labs (Wilmington, Mass.) and were routinely cultured in Hepatoyte Attachment Media (Gibco) supplemented with 10% Fetal Bovine Serum (Gibco/Life Technologies, Gaithersburg, Md.), 250 nM dexamethasone (Sigma), and 10 nM bovine insulin (Sigma). Cells were seeded into 96-well plates (Falcon-Primaria #3872) at a density of 10000 cells/well for use in RT-PCR analysis.
Cells were harvested 16-24 hours after oligonucleotide treatment.
Vacuum was applied for 15 seconds. […] The elution step was repeated with an additional 60 μL water.
Total RNA is quantified using RiboGreen™ RNA quantification reagent from Molecular Probes.
Probes and primers to mouse short heterodimer partner-1 were designed to hybridize to a mouse short heterodimer partner-1 sequence, using published sequence information (GenBank accession number L75567, incorporated herein as SEQ ID NO: 10).
All cytidine residues are 5-methylcytidines. […] Data are averages from two experiments. If present, “N.D.” indicates “no data”.

| Substance | % INHIB (inhibition of mouse short heterodimer partner-1 mRNA levels) [%] |
| --- | --- |
| 148262 (antisense eT*eG*eA*e[5mC]*eT*dG*dG*d[5mC]*d[5mC]*dG*dG*dA*dG*d[5mC]*dT*e[5mC]*eA*eT*eG*eG) [compound 148262] | 50 |
| 148263 (antisense eA*e[5mC]*e[5mC]*eT*eG*d[5mC]*dA*dG*dA*dG*d[5mC]*d[5mC]*d[5mC]*dT*dG*eG*e[5mC]*eA*eT*eG) [compound 148263] | 0 |
| 148264 (antisense eG*e[5mC]*eA*eT*eA*d[5mC]*dA*dG*dA*dA*dT*dA*dG*dT*d[5mC]*eG*eG*eA*e[5mC]*eG) [compound 148264] | 60 |
| 148265 (antisense eA*eG*eG*eT*eG*d[5mC]*dA*dA*d[5mC]*dG*dG*dG*d[5mC]*d[5mC]*dT*eG*eG*eT*e[5mC]*e[5mC]) [compound 148265] | 41 |
| 148266 (antisense eA*eG*eG*e[5mC]*eA*dG*dT*dG*dG*d[5mC]*dT*dG*dT*dG*dA*eG*eA*eT*eG*e[5mC]) [compound 148266] | 44 |
| 148267 (antisense e[5mC]*eA*e[5mC]*eA*eG*dA*d[5mC]*dG*d[5mC]*dA*d[5mC]*dA*dG*dG*d[5mC]*e[5mC]*eG*e[5mC]*eT*eG) [compound 148267] | 28 |
| 148268 (antisense eT*eG*e[5mC]*eA*eG*dG*dT*dG*d[5mC]*dG*dG*dT*dG*d[5mC]*dG*eG*eA*eG*e[5mC]*eA) [compound 148268] | 19 |
| 148269 (antisense eT*eA*eG*eG*eA*d[5mC]*dA*dT*d[5mC]*d[5mC]*dA*dA*dG*dG*d[5mC]*e[5mC]*eT*e[5mC]*e[5mC]*e[5mC]) [compound 148269] | 59 |
| 148270 (antisense e[5mC]*eA*e[5mC]*eT*e[5mC]*dT*dA*dG*d[5mC]*dA*dG*d[5mC]*d[5mC]*dG*d[5mC]*e[5mC]*eG*e[5mC]*eT*eG) [compound 148270] | 46 |
| 148271 (antisense eA*eA*e[5mC]*e[5mC]*e[5mC]*dA*dA*dG*d[5mC]*dA*dG*dG*dA*dA*dG*eA*eG*eA*eG*eG) [compound 148271] | 56 |
| 148272 (antisense e[5mC]*eG*eG*eA*eG*d[5mC]*d[5mC]*dT*d[5mC]*dA*dG*d[5mC]*d[5mC]*dA*d[5mC]*e[5mC]*eT*e[5mC]*eG*eA) [compound 148272] | 69 |
| 148273 (antisense eT*eG*eG*e[5mC]*eT*dT*d[5mC]*d[5mC]*dT*d[5mC]*dT*dA*dG*d[5mC]*dA*eG*eG*eA*eT*e[5mC]) [compound 148273] | 33 |
| 148274 (antisense eG*eG*e[5mC]*eA*e[5mC]*d[5mC]*d[5mC]*dT*dG*dG*dG*dT*dA*d[5mC]*d[5mC]*eG*e[5mC]*eT*eG*e[5mC]) [compound 148274] | 22 |
| 148275 (antisense eT*eG*eT*eG*eG*d[5mC]*d[5mC]*dG*dG*dT*d[5mC]*dT*dG*dA*dT*eG*eG*e[5mC]*eT*eG) [compound 148275] | 28 |
| 148276 (antisense eA*eG*eA*eA*eA*dG*dA*d[5mC]*dT*d[5mC]*d[5mC]*dA*dG*dG*d[5mC]*eA*eG*e[5mC]*eG*e[5mC]) [compound 148276] | 56 |
| 148277 (antisense eT*eT*e[5mC]*eA*eG*dG*dT*dA*d[5mC]*dG*d[5mC]*dA*dT*dA*d[5mC]*eT*e[5mC]*e[5mC]*eT*eT) [compound 148277] | 62 |
| 148278 (antisense e[5mC]*eA*e[5mC]*eA*eG*dT*dG*d[5mC]*d[5mC]*d[5mC]*dA*dG*dT*dG*dA*eG*e[5mC]*e[5mC]*eT*e[5mC]) [compound 148278] | 36 |
